Experimental data as given in patent publication US8450305B2, “Macrocyclic compounds useful as inhibitors of kinases and HSP90” (Universite de Strasbourg, priority 2006, dated 2013).

molecular target: T1, VEGF-R3 (Homo sapiens, UniProt P35916); assay: Radiometric protein kinase assay, VEGF-R3; assay type: biochemical; settings: 1 μM ATP; read-out: Inhibitory activity (IC50:μM) VEGF-R3
T1 construct: host or cells: Sf9 insect cells (baculovirus)
Source text: (§1) All protein kinases were expressed in Sf9 insect cells as human recombinant GST-fusion proteins or His-tagged proteins by means of the baculovirus expression system. Kinases were purified by affinity chromatography using either GSH-agarose (Sigma) or Ni-NTH-agarose (Qiagen). The purity of each kinase was checked by SDS-PAGE/silver staining and the identity of each kinase was verified by western blot analysis with kinase specific antibodies or by mass spectroscopy.
(§2) A radiometric protein kinase assay (^33PanQinase® Activity Assay) was used for measuring the kinase activity of the 24 protein kinases. All kinase assays were performed in 96-well FlashPlates™ from Perkin Elmer (Boston, Mass., USA) in a 50 μl reaction volume. The reaction cocktail was pipetted in 4 steps in the following order: • 20 μl of assay buffer • 5 μl of ATP solution (in H2O) • 5 μl of test compound (in 10% DMSO) • 10 μl of substrate/10 […] of enzyme solution (premixed)
(§3) The assay for all enzymes contained 60 mM HEPES-NaOH, pH 7.5, 3 mM MgCl2, 3 mM MnCl2, 3 μM Na-orthovanadate, 1.2 mM DTT, 50 μg/ml PEG20000, 1 μM [γ-^33P]-ATP (approx. 5×10^05 cpm per well).
(§4) For the 24 kinase assays, the following amounts of enzyme and substrate were used per well:
(§5) The reaction cocktails were incubated at 30° C. for 80 minutes. The reaction was stopped with 50 μl of 2% (v/v) H3PO4, plates were aspirated and washed two times with 200 μl of 0.9% (w/v) NaCl or 200 μl H2O. Incorporation of ^33Pi was determined with a microplate scintillation counter (Microbeta Trilux, Wallac).
(§6) The median value of the counts in column 1 (n=8) of each assay plate was defined as “low control”. This value reflects unspecific binding of radioactivity to the plate in the absence of a protein kinase but in the presence of the substrate. The median value of the counts in column 7 of each assay plate (n=8) was taken as the “high control”, i.e. full activity in the absence of any inhibitor. The difference between high and low control was taken as 100% activity.
(§7) As part of the data evaluation the low control value from a particular plate was subtracted from the high control value as well as from all 80 “compound values” of the corresponding plate. The residual activity (in %) for each well of a particular plate was calculated by using the following formula: Res. Activity (%)=100×[(cpm of compound−low control)/(high control−low control)]
(§8) The residual activities for each concentration and the compound IC50 values were calculated using Quattro Workflow V2.1.0.0 (Quattro Research GmbH, Munich, Germany; www.quattro-research.com). The model used was “Sigmoidal response (variable slope)” with parameters “top” fixed at 100% and “bottom” at 0%.

Compound	IC50 [µM]
COC1CC/C=C/C[C@H](c2ccccc2)OC(=O)c2c(O)cc(O)c(Cl)c2CC(=O)C1 (stereo partly shown) [A-2]	40
O=C1Cc2c(Cl)c(O)cc(O)c2C(=O)O[C@H](c2ccccc2)C/C=C/CCC(Cl)C1 (stereo partly shown) [A-3]	19
CC(C)[C@@H]1CC2OC2CC/C=C/C(=O)Cc2c(Cl)c(O)cc(O)c2C(=O)O1 (stereo partly shown) [A-4]	31
O=C1/C=C/CCC2OC2C[C@H](c2ccccc2)OC(=O)c2c(O)cc(O)c(Cl)c2C1 (stereo partly shown) [A-5]	31
O=C1/C=C/CCC2OC2C[C@@H](Cc2ccccc2)OC(=O)c2c(O)cc(O)cc2C1 (stereo partly shown) [A-6]	34

molecular target: T2, IGF1-R (Homo sapiens, UniProt P08069); assay: Radiometric protein kinase assay, IGF1-R; assay type: biochemical; settings: 1 μM ATP; read-out: Inhibitory activity (IC50:μM) IGF1-R
T2 construct: host or cells: Sf9 insect cells (baculovirus)
T2 sequence (P08069 31-1367): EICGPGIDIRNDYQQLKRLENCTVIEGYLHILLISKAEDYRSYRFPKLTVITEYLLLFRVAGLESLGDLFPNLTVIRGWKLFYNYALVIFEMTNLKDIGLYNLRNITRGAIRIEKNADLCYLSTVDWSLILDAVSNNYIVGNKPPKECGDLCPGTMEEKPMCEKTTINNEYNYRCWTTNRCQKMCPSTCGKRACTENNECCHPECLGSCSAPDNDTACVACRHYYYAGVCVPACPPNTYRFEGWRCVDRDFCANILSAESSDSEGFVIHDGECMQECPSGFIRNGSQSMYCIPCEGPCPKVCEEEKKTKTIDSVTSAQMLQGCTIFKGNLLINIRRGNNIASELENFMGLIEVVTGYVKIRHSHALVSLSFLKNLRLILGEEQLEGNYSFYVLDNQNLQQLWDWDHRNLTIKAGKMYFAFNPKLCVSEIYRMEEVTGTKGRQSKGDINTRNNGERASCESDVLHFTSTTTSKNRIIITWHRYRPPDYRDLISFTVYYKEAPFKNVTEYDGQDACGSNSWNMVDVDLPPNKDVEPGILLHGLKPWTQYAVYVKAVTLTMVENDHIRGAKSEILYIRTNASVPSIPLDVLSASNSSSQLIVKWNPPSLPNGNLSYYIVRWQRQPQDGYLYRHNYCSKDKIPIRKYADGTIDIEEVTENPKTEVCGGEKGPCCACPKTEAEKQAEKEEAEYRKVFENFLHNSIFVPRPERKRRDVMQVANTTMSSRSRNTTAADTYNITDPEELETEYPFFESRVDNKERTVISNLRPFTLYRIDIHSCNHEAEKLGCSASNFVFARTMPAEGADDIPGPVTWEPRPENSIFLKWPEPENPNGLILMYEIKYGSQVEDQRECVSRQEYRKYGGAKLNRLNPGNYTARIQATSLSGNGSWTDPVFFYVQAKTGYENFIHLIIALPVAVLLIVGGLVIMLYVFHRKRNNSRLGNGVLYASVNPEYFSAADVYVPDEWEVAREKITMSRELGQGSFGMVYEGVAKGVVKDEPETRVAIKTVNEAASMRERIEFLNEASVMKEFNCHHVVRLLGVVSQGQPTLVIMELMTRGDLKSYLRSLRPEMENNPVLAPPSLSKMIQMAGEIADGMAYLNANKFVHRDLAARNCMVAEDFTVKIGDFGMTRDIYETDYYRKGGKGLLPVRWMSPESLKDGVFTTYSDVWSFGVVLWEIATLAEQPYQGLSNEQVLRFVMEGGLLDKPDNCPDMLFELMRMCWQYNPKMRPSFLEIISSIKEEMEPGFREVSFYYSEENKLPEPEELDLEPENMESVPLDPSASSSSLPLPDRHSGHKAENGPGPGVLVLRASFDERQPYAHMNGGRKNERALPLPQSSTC
Source text: as §1, §2, §3, §4, §5, §6, §7, §8

Compound	IC50 [µM]
COC1CC/C=C/C[C@H](c2ccccc2)OC(=O)c2c(O)cc(O)c(Cl)c2CC(=O)C1 (stereo partly shown) [A-2]	16
O=C1Cc2c(Cl)c(O)cc(O)c2C(=O)O[C@H](c2ccccc2)C/C=C/CCC(Cl)C1 (stereo partly shown) [A-3]	19
CC(C)[C@@H]1CC2OC2CC/C=C/C(=O)Cc2c(Cl)c(O)cc(O)c2C(=O)O1 (stereo partly shown) [A-4]	13
O=C1/C=C/CCC2OC2C[C@@H](Cc2ccccc2)OC(=O)c2c(O)cc(O)cc2C1 (stereo partly shown) [A-6]	21

molecular target: T3, EGF-R (Homo sapiens, UniProt P00533); assay: Radiometric protein kinase assay, EGF-R; assay type: biochemical; settings: 1 μM ATP; read-out: Inhibitory activity (IC50:μM) EGF-R
T3 construct: host or cells: Sf9 insect cells (baculovirus)
T3 sequence (P00533 25-1210): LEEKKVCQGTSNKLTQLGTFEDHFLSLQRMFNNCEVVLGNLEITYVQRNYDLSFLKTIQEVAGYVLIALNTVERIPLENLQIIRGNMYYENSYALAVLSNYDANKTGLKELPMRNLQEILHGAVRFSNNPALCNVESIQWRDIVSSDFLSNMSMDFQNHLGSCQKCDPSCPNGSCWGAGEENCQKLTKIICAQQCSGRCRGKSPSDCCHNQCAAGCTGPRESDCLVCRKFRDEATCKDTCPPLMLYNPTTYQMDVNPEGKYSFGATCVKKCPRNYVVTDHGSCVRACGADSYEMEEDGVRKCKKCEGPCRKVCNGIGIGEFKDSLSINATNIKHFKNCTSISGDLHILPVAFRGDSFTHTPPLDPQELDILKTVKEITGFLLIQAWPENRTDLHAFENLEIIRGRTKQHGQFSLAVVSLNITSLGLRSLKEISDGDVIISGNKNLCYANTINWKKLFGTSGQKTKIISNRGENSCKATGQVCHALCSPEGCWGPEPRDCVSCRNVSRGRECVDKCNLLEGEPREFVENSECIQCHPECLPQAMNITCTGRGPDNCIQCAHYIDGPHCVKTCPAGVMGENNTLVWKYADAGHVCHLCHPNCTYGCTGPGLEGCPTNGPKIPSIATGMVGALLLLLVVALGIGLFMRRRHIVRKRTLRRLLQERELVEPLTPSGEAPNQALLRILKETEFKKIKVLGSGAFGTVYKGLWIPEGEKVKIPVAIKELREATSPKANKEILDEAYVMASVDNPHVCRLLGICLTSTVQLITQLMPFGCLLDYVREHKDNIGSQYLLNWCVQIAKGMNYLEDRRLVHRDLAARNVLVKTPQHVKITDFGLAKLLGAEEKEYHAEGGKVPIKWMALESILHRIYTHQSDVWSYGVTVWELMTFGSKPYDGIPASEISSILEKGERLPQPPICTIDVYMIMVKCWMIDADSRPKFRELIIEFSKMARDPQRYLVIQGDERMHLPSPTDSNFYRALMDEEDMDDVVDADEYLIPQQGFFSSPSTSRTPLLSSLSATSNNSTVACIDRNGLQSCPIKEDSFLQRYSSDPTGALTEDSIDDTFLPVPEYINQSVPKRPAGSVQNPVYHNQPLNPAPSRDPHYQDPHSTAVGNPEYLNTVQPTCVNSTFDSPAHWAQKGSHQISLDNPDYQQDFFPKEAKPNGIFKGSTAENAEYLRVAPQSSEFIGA
Source text: as §1, §2, §3, §4, §5, §6, §7, §8

Compound	IC50 [µM]
COC1CC/C=C/C[C@H](c2ccccc2)OC(=O)c2c(O)cc(O)c(Cl)c2CC(=O)C1 (stereo partly shown) [A-2]	10
O=C1Cc2c(Cl)c(O)cc(O)c2C(=O)O[C@H](c2ccccc2)C/C=C/CCC(Cl)C1 (stereo partly shown) [A-3]	14
CC(C)[C@@H]1CC2OC2CC/C=C/C(=O)Cc2c(Cl)c(O)cc(O)c2C(=O)O1 (stereo partly shown) [A-4]	22
O=C1/C=C/CCC2OC2C[C@H](c2ccccc2)OC(=O)c2c(O)cc(O)c(Cl)c2C1 (stereo partly shown) [A-5]	16
O=C1/C=C/CCC2OC2C[C@@H](Cc2ccccc2)OC(=O)c2c(O)cc(O)cc2C1 (stereo partly shown) [A-6]	32

molecular target: T4, SRC (Homo sapiens, UniProt P12931); assay: Radiometric protein kinase assay, SRC; assay type: biochemical; settings: 1 μM ATP; read-out: Inhibitory activity (IC50:μM) SRC
T4 construct: host or cells: Sf9 insect cells (baculovirus)
T4 sequence (P12931 whole entry): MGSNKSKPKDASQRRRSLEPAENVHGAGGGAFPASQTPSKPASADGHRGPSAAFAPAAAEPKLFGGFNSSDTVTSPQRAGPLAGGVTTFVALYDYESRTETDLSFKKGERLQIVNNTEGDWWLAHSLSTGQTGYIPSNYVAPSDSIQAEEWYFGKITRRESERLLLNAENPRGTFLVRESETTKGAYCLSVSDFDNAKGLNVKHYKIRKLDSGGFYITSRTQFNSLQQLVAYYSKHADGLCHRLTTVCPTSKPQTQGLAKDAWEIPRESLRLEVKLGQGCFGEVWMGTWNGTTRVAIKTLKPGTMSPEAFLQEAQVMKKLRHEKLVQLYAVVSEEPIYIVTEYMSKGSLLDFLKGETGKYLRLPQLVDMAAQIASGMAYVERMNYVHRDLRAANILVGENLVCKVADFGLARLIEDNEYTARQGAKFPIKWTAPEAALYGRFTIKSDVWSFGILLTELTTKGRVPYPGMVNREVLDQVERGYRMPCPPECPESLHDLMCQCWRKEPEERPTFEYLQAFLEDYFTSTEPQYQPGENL
Source text: as §1, §2, §3, §4, §5, §6, §7, §8

Compound	IC50 [µM]
O=C1Cc2c(Cl)c(O)cc(O)c2C(=O)O[C@H](c2ccccc2)C/C=C/CCC(Cl)C1 (stereo partly shown) [A-3]	14
CC(C)[C@@H]1CC2OC2CC/C=C/C(=O)Cc2c(Cl)c(O)cc(O)c2C(=O)O1 (stereo partly shown) [A-4]	12
O=C1/C=C/CCC2OC2C[C@H](c2ccccc2)OC(=O)c2c(O)cc(O)c(Cl)c2C1 (stereo partly shown) [A-5]	12
O=C1/C=C/CCC2OC2C[C@@H](Cc2ccccc2)OC(=O)c2c(O)cc(O)cc2C1 (stereo partly shown) [A-6]	20

molecular target: T5, MET (Homo sapiens, UniProt P08581); assay: Radiometric protein kinase assay, MET; assay type: biochemical; settings: 1 μM ATP; read-out: Inhibitory activity (IC50:μM) MET
T5 construct: host or cells: Sf9 insect cells (baculovirus)
T5 sequence (P08581 25-1390): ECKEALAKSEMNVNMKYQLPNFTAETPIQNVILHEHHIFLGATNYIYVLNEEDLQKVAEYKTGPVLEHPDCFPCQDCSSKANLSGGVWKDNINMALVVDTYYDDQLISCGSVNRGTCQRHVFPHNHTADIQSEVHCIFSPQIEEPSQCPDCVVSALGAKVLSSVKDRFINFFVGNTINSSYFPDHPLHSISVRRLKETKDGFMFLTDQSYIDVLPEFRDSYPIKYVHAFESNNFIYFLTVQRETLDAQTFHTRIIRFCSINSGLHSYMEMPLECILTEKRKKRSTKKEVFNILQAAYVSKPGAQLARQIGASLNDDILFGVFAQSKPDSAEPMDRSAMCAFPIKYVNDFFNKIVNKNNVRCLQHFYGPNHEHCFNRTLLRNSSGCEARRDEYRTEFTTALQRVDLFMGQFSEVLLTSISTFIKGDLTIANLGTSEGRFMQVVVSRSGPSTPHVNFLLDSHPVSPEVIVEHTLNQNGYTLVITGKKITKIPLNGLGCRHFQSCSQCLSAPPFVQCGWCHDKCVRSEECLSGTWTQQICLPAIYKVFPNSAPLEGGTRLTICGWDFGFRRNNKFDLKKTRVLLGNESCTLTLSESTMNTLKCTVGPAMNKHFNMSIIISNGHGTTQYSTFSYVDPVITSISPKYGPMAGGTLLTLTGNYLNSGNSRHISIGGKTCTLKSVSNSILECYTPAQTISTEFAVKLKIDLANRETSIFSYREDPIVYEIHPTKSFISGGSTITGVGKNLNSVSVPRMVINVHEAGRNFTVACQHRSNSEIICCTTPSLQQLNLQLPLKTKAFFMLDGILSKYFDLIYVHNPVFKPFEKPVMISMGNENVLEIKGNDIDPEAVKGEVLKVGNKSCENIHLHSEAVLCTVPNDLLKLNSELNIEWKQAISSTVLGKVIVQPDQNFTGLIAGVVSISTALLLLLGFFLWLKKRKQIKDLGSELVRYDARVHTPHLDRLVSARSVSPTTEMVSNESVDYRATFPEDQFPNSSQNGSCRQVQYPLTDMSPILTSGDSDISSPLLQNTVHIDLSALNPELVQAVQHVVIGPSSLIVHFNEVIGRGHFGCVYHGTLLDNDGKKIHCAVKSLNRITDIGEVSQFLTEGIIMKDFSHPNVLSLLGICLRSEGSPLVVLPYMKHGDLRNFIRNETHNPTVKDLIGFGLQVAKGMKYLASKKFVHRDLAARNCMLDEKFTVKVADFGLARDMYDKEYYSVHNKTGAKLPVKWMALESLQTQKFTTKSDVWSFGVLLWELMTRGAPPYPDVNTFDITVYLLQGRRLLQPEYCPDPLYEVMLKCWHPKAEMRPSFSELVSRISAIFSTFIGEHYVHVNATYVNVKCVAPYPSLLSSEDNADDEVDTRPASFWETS
Source text: as §1
as §2, with “(premixed) […]” for “(premixed)”
The reaction cocktails were incubated at 30° C. for 80 minutes. […] Incorporation of ^33Pi was determined with a microplate scintillation counter (Microbeta Trilux, Wallac).
The median value of the counts in column 1 (n=8) of each assay plate was defined as “low control”. This value reflects unspecific binding of radioactivity to the plate in the absence of a protein kinase but in the presence of the substrate. […]
as §7
The residual activities for each concentration and the compound IC50 values were calculated using Quattro Workflow V2.1.0.0 (Quattro Research GmbH, Munich, Germany; www.quattro-research.com). […]

Compound	IC50 [µM]
COC1CC/C=C/C[C@H](c2ccccc2)OC(=O)c2c(O)cc(O)c(Cl)c2CC(=O)C1 (stereo partly shown) [A-2]	32
O=C1Cc2c(Cl)c(O)cc(O)c2C(=O)O[C@H](c2ccccc2)C/C=C/CCC(Cl)C1 (stereo partly shown) [A-3]	29
O=C1/C=C/CCC2OC2C[C@@H](Cc2ccccc2)OC(=O)c2c(O)cc(O)cc2C1 (stereo partly shown) [A-6]	36

molecular target: T6, FLT3 (Homo sapiens, UniProt P36888); assay: Radiometric protein kinase assay, FLT3; assay type: biochemical; settings: 1 μM ATP; read-out: Inhibitory activity (IC50:μM) FLT3
T6 construct: host or cells: Sf9 insect cells (baculovirus)
T6 sequence (P36888 27-993): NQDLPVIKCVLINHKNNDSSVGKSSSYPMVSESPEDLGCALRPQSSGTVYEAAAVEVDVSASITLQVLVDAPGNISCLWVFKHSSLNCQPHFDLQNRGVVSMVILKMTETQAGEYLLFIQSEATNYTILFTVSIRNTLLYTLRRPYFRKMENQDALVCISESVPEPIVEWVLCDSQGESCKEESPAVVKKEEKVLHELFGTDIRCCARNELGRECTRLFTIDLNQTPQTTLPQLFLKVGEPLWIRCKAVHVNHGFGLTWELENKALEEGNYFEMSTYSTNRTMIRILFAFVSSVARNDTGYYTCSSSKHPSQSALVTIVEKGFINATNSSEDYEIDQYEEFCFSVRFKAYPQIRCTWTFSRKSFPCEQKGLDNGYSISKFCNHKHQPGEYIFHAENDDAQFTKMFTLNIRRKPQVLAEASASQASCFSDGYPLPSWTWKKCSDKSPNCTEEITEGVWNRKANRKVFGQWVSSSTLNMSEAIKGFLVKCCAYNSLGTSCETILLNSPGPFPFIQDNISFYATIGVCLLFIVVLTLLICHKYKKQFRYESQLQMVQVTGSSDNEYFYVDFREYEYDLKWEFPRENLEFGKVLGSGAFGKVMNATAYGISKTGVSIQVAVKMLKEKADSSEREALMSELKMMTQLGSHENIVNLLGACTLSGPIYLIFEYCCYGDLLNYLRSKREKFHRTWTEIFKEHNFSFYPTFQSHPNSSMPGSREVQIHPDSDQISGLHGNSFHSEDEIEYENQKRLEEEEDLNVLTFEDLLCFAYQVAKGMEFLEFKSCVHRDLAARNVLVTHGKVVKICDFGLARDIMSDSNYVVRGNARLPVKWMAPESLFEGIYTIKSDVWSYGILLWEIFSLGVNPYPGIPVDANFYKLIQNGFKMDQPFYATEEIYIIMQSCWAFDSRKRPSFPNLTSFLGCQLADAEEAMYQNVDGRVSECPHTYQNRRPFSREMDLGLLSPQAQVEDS
Source text: as §1, §2, §3, §4, §5, §6, §7, §8

Compound	IC50 [µM]
COC1CC/C=C/C[C@H](c2ccccc2)OC(=O)c2c(O)cc(O)c(Cl)c2CC(=O)C1 (stereo partly shown) [A-2]	23
O=C1Cc2c(Cl)c(O)cc(O)c2C(=O)O[C@H](c2ccccc2)C/C=C/CCC(Cl)C1 (stereo partly shown) [A-3]	23
CC(C)[C@@H]1CC2OC2CC/C=C/C(=O)Cc2c(Cl)c(O)cc(O)c2C(=O)O1 (stereo partly shown) [A-4]	45
O=C1/C=C/CCC2OC2C[C@@H](Cc2ccccc2)OC(=O)c2c(O)cc(O)cc2C1 (stereo partly shown) [A-6]	44
